Source: US8614327B2 (Vertex Pharmaceuticals Incorporated, priority 2004, dated 2013)

Molecular target: T1, ΔF508-CFTR (Homo sapiens, UniProt P13569, DEL508-508)
T1 construct: expressed in transfected cells
Test: Membrane potential optical (FRET/VIPR) assay, identification of potentiator compounds
Format: cell-based
Conditions: Table 3, assay not given; for % Activity: relative efficacy
Summary of the method: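 Double-addition potentiator screen: compound delivered in gluconate-substituted Cl^--free medium, membrane potential followed via CC2-DMPE/DiSBAC2(3) FRET on VIPR. Cells were ΔF508-CFTR-expressing NIH3T3 mouse fibroblasts, held 2 h at 37° C. then 24 h at 27° C. before assay.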

T1 sequence (P13569 with tags, fused parts or gaps DEL508-508): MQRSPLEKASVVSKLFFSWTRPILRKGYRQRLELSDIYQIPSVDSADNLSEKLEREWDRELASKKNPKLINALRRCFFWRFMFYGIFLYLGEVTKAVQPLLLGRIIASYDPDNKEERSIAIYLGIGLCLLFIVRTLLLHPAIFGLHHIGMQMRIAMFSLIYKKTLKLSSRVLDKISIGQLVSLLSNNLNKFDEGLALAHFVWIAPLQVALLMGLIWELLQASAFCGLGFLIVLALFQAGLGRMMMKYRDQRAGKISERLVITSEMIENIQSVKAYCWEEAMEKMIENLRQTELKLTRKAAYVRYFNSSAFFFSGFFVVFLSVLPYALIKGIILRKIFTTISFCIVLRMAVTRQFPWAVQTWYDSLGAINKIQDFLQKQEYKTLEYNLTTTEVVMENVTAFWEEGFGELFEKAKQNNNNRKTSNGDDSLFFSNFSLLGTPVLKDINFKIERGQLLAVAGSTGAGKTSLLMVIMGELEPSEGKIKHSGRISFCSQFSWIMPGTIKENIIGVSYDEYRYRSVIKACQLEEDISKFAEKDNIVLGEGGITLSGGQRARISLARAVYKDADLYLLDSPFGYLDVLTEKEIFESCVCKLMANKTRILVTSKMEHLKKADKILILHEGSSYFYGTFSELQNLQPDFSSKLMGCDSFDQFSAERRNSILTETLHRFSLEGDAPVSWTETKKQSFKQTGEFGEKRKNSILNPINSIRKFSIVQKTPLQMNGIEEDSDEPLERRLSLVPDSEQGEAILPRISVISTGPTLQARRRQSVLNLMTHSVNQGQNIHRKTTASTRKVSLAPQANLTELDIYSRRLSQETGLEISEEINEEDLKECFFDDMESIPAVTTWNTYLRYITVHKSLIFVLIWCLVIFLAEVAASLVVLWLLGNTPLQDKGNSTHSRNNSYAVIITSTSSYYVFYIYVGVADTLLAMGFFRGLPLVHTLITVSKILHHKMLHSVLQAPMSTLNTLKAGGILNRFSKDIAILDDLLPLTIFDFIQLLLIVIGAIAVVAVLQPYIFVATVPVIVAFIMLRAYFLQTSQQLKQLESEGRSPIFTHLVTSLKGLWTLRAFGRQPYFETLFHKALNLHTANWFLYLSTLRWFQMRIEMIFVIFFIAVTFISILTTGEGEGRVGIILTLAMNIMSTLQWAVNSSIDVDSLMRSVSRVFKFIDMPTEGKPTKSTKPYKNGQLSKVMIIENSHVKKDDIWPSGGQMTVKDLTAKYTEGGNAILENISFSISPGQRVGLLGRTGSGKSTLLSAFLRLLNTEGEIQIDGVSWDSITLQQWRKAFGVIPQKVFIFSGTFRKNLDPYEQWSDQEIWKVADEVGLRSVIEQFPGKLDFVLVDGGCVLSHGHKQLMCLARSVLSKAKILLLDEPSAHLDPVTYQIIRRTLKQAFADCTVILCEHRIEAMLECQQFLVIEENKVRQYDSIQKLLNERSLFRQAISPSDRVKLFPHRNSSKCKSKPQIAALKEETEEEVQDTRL

Row | EC50 [µM] | % Activity | SMILES
1 | < 10 | ++ (between 25% to 100%) | COCCn1ccc2cc(C(F)(F)F)c(NC(=O)c3c[nH]c4ccc(F)cc4c3=O)cc21 [Compound 566, 6-fluoro-N-[1-(2-methoxyethyl)-5-(trifluoromethyl)indol-6-yl]-4-oxo-1H-quinoline-3-carboxamide]
2 | < 10 | + (<25%) | CC(C)(C)c1cc(F)c(NC(=O)c2c[nH]c3c(C(F)(F)F)cccc3c2=O)cc1O [Compound 638, N-(2-fluoro-5-hydroxy-4-tert-butyl-phenyl)-4-oxo-8-(trifluoromethyl)-1H-quinoline-3-carboxamide]
3 | < 10 | ++ (between 25% to 100%) | O=C(Nc1ccc(OC(F)(F)F)c(N2CCCC2)c1)c1c[nH]c2ccccc2c1=O [Compound 579, 4-oxo-N-[3-pyrrolidin-1-yl-4-(trifluoromethoxy)phenyl]-1H-quinoline-3-carboxamide]
4 | < 10 | ++ (between 25% to 100%) | Cc1ccc2[nH]cc(C(=O)Nc3ccc(N4[C@H](C)CC[C@H]4C)cc3C(F)(F)F)c(=O)c2c1 [Compound 569, N-(4-((2R,5R)-2,5-dimethylpyrrolidin-1-yl)-2-(trifluoromethyl)phenyl)-6-methyl-4-oxo-1,4-dihydroquinoline-3-carboxamide]
5 | < 10 | +++ (>100%) | CC(C)c1cc(C(F)(F)F)c(NC(=O)c2c[nH]c3ccccc3c2=O)cc1O [Compound 497, N-[5-hydroxy-4-isopropyl-2-(trifluoromethyl)phenyl]-4-oxo-1H-quinoline-3-carboxamide]
6 | < 10 | ++ (between 25% to 100%) | CCc1cc(C(C)(C)C)c(O)cc1NC(=O)c1c[nH]c2ccccc2c1=O [Compound 659, N-(2-ethyl-5-hydroxy-4-tert-butyl-phenyl)-4-oxo-1H-quinoline-3-carboxamide]
7 | < 10 | ++ (between 25% to 100%) | Cc1cc(NC(=O)c2c[nH]c3ccccc3c2=O)ccc1F [Compound 257, N-(4-fluoro-3-methyl-phenyl)-4-oxo-1H-quinoline-3-carboxamide]
8 | 10 to 25 | ++ (between 25% to 100%) | COc1ccc(NC(=O)c2c[nH]c3ccccc3c2=O)c(OC)n1 [Compound 193, N-(2,6-dimethoxy-3-pyridyl)-4-oxo-1H-quinoline-3-carboxamide]
9 | < 10 | ++ (between 25% to 100%) | C[C@H]1CCCN1c1ccc(NC(=O)c2c[nH]c3ccccc3c2=O)c(C(F)(F)F)c1 [Compound 618, (S)-N-(4-(2-methylpyrrolidin-1-yl)-2-(trifluoromethyl)phenyl)-4-oxo-1,4-dihydroquinoline-3-carboxamide]
10 | < 10 | ++ (between 25% to 100%) | CC(C)(C)c1ccc(O)cc1NC(=O)c1c[nH]c2cccc(O)c2c1=O [Compound 609, 5-hydroxy-N-(5-hydroxy-2-tert-butyl-phenyl)-4-oxo-1H-quinoline-3-carboxamide]
11 | < 10 | ++ (between 25% to 100%) | Cc1cccc(C)c1NC(=O)c1c[nH]c2ccccc2c1=O [Compound 315, N-(2,6-dimethylphenyl)-4-oxo-1H-quinoline-3-carboxamide]
12 | < 10 | ++ (between 25% to 100%) | Cc1ccc(-c2ccccc2NC(=O)c2c[nH]c3ccccc3c2=O)cc1C [Compound 261, N-[2-(3,4-dimethylphenyl)phenyl]-4-oxo-1H-quinoline-3-carboxamide]
13 | < 10 | ++ (between 25% to 100%) | Cc1cccc2[nH]cc(C(=O)Nc3ccc(N4[C@@H](C)CC[C@@H]4C)cc3C(F)(F)F)c(=O)c12 [Compound 516, N-(4-((2S,5S)-2,5-dimethylpyrrolidin-1-yl)-2-(trifluoromethyl)phenyl)-5-methyl-4-oxo-1,4-dihydroquinoline-3-carboxamide]
14 | < 10 | ++ (between 25% to 100%) | Cc1cccc2[nH]cc(C(=O)Nc3ccc(N4CCC[C@@H]4C)nc3C(F)(F)F)c(=O)c12 [Compound 581, (S)-5-methyl-N-(6-(2-methylpyrrolidin-1-yl)-2-(trifluoromethyl)pyridin-3-yl)-4-oxo-1,4-dihydroquinoline-3-carboxamide]
15 | < 10 | ++ (between 25% to 100%) | Cc1cccc2[nH]cc(C(=O)Nc3ccc(N4CCC(C)C4)cc3C(F)(F)F)c(=O)c12 (stereo not drawn) [Compound 546, 5-methyl-N-[4-(3-methylpyrrolidin-1-yl)-2-(trifluoromethyl)phenyl]-4-oxo-1H-quinoline-3-carboxamide]

More lines, now with the values behind:

Row | SMILES | EC50 [µM] | % Activity
16 | O=C(Nc1cc2[nH]ccc2cc1C(=O)N1CCCCC1)c1c[nH]c2ccccc2c1=O [Compound 148, 4-oxo-N-[5-(1-piperidylcarbonyl)-1H-indol-6-yl]-1H-quinoline-3-carboxamide] | < 10 | ++ (between 25% to 100%)
17 | O=C(Nc1ccccc1-c1cccc(Cl)c1)c1c[nH]c2ccccc2c1=O [Compound 307, N-[2-(3-chlorophenyl)phenyl]-4-oxo-1H-quinoline-3-carboxamide] | < 10 | ++ (between 25% to 100%)
18 | COc1ccc(Cl)cc1-c1ccccc1NC(=O)c1c[nH]c2ccccc2c1=O [Compound 202, N-[2-(5-chloro-2-methoxy-phenyl)phenyl]-4-oxo-1H-quinoline-3-carboxamide] | < 10 | ++ (between 25% to 100%)
19 | CC1(c2cc(F)c(NC(=O)c3c[nH]c4ccccc4c3=O)cc2O)CCCCC1 [Compound 92, N-[2-fluoro-5-hydroxy-4-(1-methylcyclohexyl)-phenyl]-4-oxo-1H-quinoline-3-carboxamide] | < 10 | ++ (between 25% to 100%)
20 | CC(C)(C)c1cc(C(C)(C)C)c(NC(=O)c2c[nH]c3ccccc3c2=O)cc1O [Compound 433, N-(5-hydroxy-2,4-ditert-butyl-phenyl)-4-oxo-1H-quinoline-3-carboxamide] | < 10 | 
21 | O=C(Nc1ccc(F)cc1)c1c[nH]c2ccccc2c1=O [Compound 198, N-(4-fluorophenyl)-4-oxo-1H-quinoline-3-carboxamide] | < 10 | ++ (between 25% to 100%)
22 | CC(C)c1cccc(C(C)C)c1NC(=O)c1c[nH]c2ccccc2c1=O [Compound 466, N-(2,6-diisopropylphenyl)-4-oxo-1H-quinoline-3-carboxamide] | < 10 | ++ (between 25% to 100%)
23 | COCCOC(=O)NCC(C)(C)c1ccc(NC(=O)c2c[nH]c3ccccc3c2=O)cc1 [Compound 28, [2-methyl-2-[4-[(4-oxo-1H-quinolin-3-yl)carbonylamino]phenyl]-propyl]aminoformic acid 2-methoxyethyl ester] | 10 to 25 | ++ (between 25% to 100%)
24 | CCC(C)c1ccccc1NC(=O)c1c[nH]c2ccccc2c1=O (stereo not drawn) [Compound 142, 4-oxo-N-(2-sec-butylphenyl)-1H-quinoline-3-carboxamide] | < 10 | ++ (between 25% to 100%)
25 | O=C(Nc1ccccc1-c1ccc(F)c(Cl)c1)c1c[nH]c2ccccc2c1=O [Compound 190, N-[2-(3-chloro-4-fluoro-phenyl)phenyl]-4-oxo-1H-quinoline-3-carboxamide] | < 10 | ++ (between 25% to 100%)
26 | O=C(Nc1cccc2nsnc12)c1c[nH]c2ccccc2c1=O [Compound 54, 4-oxo-N-(8-thia-7,9-diazabicyclo[4.3.0]nona-2,4,6,9-tetraen-5-yl)-1H-quinoline-3-carboxamide] | 25 to 60 | + (<25%)
27 | CCOc1ccc(NC(C)=O)cc1NC(=O)c1c[nH]c2ccccc2c1=O [Compound 132, N-(5-acetylamino-2-ethoxy-phenyl)-4-oxo-1H-quinoline-3-carboxamide] | 25 to 60 | + (<25%)
28 | Cc1ccc2c(c1)c(=O)c(C(=O)Nc1ccccc1-c1ccccc1)cn2C [Compound 128, 1,6-dimethyl-4-oxo-N-(2-phenylphenyl)-1H-quinoline-3-carboxamide] | 25 to 60 | + (<25%)
29 | O=C(Nc1ccc(-c2ccccc2)cn1)c1c[nH]c2ccccc2c1=O [Compound 402, 4-oxo-N-(5-phenyl-2-pyridyl)-1H-quinoline-3-carboxamide] | < 10 | + (<25%)
30 | CC(C)COC(=O)NCC(C)(C)c1ccc(NC(=O)c2c[nH]c3ccccc3c2=O)cc1 [Compound 251, [2-methyl-2-[4-[(4-oxo-1H-quinolin-3-yl)carbonylamino]phenyl]-propyl]aminoformic acid isobutyl ester] | < 10 | ++ (between 25% to 100%)
31 | CCC(CC)(CC)c1cc(F)c(NC(=O)c2cnc3ccccc3c2O)cc1O [Compound 34, N-[4-(1,1-diethylpropyl)-2-fluoro-5-hydroxy-phenyl]-4-hydroxy-quinoline-3-carboxamide] | < 10 | ++ (between 25% to 100%)
32 | CC(C)(C)c1cc(C(C)(C)C)c(NC(=O)c2c[nH]c3ccc(Cl)cc3c2=O)cc1O [Compound 623, 6-chloro-N-(5-hydroxy-2,4-ditert-butyl-phenyl)-4-oxo-1H-quinoline-3-carboxamide] | < 10 | ++ (between 25% to 100%)
33 | Nc1cc(NC(=O)c2c[nH]c3ccccc3c2=O)c(Cl)cc1Cl [Compound 242, N-(5-amino-2,4-dichloro-phenyl)-4-oxo-1H-quinoline-3-carboxamide] | < 10 | ++ (between 25% to 100%)
34 | COc1ccccc1NC(=O)c1c[nH]c2ccccc2c1=O [Compound 80, N-(2-methoxyphenyl)-4-oxo-1H-quinoline-3-carboxamide] | < 10 | ++ (between 25% to 100%)
35 | CC1(c2ccc(NC(=O)c3c[nH]c4ccc(F)cc4c3=O)cc2)COC1 [Compound 521, 6-fluoro-N-[4-(3-methyloxetan-3-yl)phenyl]-4-oxo-1H-quinoline-3-carboxamide] | < 10 | ++ (between 25% to 100%)
